This passage reports IC50 results from EP0411334B1, “Antiherpes pentapeptide derivatives having a substituted aspartic acid side chain” (BIO-MEGA/BOEHRINGER INGELHEIM RESEARCH INC., priority 1989, dated 1991).

Where a SMILES comes first, the peptide text is derived from it. [ ]: non-standard residue; d: D form. The star is where a group is joined. Dihydrocaffeoyl = O=C(CCc1ccc(O)c(O)c1)*; Benzoyl(2-Ph) = O=C(c1ccccc1-c1ccccc1)*; Desaminotyrosyl = O=C(CCc1ccc(O)cc1)*; Hydrocinnamoyl = O=C(CCc1ccccc1)*; N(Me)CH2CH2Ph = CN(CCc1ccccc1)*; Pentanoyl(4-Me) = CC(C)CCC(=O)*; O(2S-octyl) = CCCCCC[C@H](C)O*; NHPhenethyl = c1ccc(CCN*)cc1; NMeV = CN[C@H](C(=O)O)C(C)C; Morpholide = C1CN(*)CCO1; Pyrrolidide = C1CCN(*)C1; NiPr2 = CC(C)N(C(C)C)*; X1 = CCCCCC[C@@H](C)O*; X3 = c1ccc(CCCO*)cc1; X8 = CN(CCc1ccccn1)*; Bz = O=C(c1ccccc1)*; NHPh = c1ccc(N*)cc1; N(Me)OMe = CON(C)*; NEt2 = CCN(CC)*

The experiment deals with HSV-1 ribonucleotide reductase (Human herpesvirus 1, UniProt P08543). As to the kind of experiment: biochemical.
Sequence of HSV-1 ribonucleotide reductase (P08543 whole entry): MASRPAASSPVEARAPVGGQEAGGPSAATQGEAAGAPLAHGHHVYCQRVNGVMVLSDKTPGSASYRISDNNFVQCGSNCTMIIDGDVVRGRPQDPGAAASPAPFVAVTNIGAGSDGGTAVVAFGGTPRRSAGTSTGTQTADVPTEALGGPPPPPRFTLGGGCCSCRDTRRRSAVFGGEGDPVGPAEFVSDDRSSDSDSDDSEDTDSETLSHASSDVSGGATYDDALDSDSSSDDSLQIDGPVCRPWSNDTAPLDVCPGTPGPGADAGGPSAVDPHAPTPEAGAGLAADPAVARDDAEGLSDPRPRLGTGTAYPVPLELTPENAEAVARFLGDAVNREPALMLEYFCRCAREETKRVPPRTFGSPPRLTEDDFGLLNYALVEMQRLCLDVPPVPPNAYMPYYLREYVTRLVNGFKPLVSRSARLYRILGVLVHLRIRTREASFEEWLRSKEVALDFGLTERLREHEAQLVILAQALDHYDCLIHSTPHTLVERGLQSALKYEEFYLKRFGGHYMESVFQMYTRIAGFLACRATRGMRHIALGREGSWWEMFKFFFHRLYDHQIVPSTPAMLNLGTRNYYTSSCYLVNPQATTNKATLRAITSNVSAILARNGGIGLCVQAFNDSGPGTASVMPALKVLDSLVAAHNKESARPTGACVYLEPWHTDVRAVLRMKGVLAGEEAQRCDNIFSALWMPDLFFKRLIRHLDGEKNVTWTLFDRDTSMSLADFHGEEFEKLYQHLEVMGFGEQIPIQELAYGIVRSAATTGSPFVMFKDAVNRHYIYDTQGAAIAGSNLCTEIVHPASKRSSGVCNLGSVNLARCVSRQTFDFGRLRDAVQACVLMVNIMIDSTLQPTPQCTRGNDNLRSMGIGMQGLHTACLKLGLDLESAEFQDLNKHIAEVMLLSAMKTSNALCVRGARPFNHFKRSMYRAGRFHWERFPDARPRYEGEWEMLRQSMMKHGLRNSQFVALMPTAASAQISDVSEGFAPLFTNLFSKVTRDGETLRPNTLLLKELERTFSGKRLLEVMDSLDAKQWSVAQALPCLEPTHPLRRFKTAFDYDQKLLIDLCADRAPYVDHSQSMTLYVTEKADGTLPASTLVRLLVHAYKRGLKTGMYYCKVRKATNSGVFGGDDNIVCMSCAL
Source text: Inhibition of Herpes Simplex Virus (HSV, type 1) Ribonucleotide Reductase
• a) Preparation of Enzyme HSV-1 ribonucleotide reductase (partially purified) was obtained from quiescent BHK-21/C13 cells infected with strain F HSV-1 virus at 10 plaque forming units/cell as described by E.A. Cohen et al., J. Gen. […] The number of units of the enzyme preparation used in each assay was constant, based on the specific activity of the enzyme preparation.
Turning to `CCCCCC[C@H](C)OC(=O)C[C@H](NC(=O)[C@@H](NC(=O)[C@H](C(C)C)N(C)C(=O)CCc1ccccc1)[C@@H](C)CC)C(=O)N[C@@H](CC(=O)O)C(=O)N[C@@H](CC(C)C)C(=O)O` [Entry 1] (Hydrocinnamoyl-[NMeV]ID(O(2S-octyl))DL-OH), it took 700 nM to reach half-maximal inhibition (IC50).
Next, `CCCCCC[C@@H](C)OC(=O)C[C@H](NC(=O)[C@@H](NC(=O)[C@H](C(C)C)N(C)C(=O)CCc1ccccc1)[C@@H](C)CC)C(=O)N[C@@H](CC(=O)O)C(=O)N[C@@H](CC(C)C)C(=O)O` [Entry 2] (Hydrocinnamoyl-[NMeV]ID(X1)DL-OH): 700 nM; `CC[C@H](C)[C@H](NC(=O)[C@H](C(C)C)N(C)C(=O)CCc1ccccc1)C(=O)N[C@@H](CC(=O)N(C)C)C(=O)N[C@@H](CC(=O)O)C(=O)N[C@@H](CC(C)C)C(=O)O` [Entry 3] (Hydrocinnamoyl-[NMeV]ID(NMe2)DL-OH): 190 nM.
The value for `CC[C@H](C)[C@H](NC(=O)[C@H](C(C)C)N(C)C(=O)CCc1ccccc1)C(=O)N[C@@H](CC(=O)N(CC)CC)C(=O)N[C@@H](CC(=O)O)C(=O)N[C@@H](CC(C)C)C(=O)O` [Entry 4] (Hydrocinnamoyl-[NMeV]ID(NEt2)DL-OH) was 260 nM; that for `CC[C@H](C)[C@H](NC(=O)[C@H](C(C)C)N(C)C(=O)CCc1ccccc1)C(=O)N[C@@H](CC(=O)N(C(C)C)C(C)C)C(=O)N[C@@H](CC(=O)O)C(=O)N[C@@H](CC(C)C)C(=O)O` [Entry 5] (Hydrocinnamoyl-[NMeV]ID(NiPr2)DL-OH) was 250 nM.
Next, `CC[C@H](C)[C@H](NC(=O)[C@H](C(C)C)N(C)C(=O)CCc1ccccc1)C(=O)N[C@@H](CC(=O)N1CCCC1)C(=O)N[C@@H](CC(=O)O)C(=O)N[C@@H](CC(C)C)C(=O)O` [Entry 6] (Hydrocinnamoyl-[NMeV]ID(Pyrrolidide)DL-OH): 110 nM; `CC[C@H](C)[C@H](NC(=O)[C@H](C(C)C)N(C)C(=O)CCc1ccccc1)C(=O)N[C@@H](CC(=O)N1CCOCC1)C(=O)N[C@@H](CC(=O)O)C(=O)N[C@@H](CC(C)C)C(=O)O` [Entry 7] (Hydrocinnamoyl-[NMeV]ID(Morpholide)DL-OH): 180 nM; `CC[C@H](C)[C@H](NC(=O)[C@H](C(C)C)N(C)C(=O)CCc1ccccc1)C(=O)N[C@@H](CC(=O)N(C)OC)C(=O)N[C@@H](CC(=O)O)C(=O)N[C@@H](CC(C)C)C(=O)O` [Entry 8] (Hydrocinnamoyl-[NMeV]ID(N(Me)OMe)DL-OH): 190 nM.
On to `CC[C@H](C)[C@H](NC(=O)[C@H](C(C)C)N(C)C(=O)CCc1ccc(O)cc1)C(=O)N[C@@H](CC(=O)OCCCc1ccccc1)C(=O)N[C@@H](CC(=O)O)C(=O)N[C@@H](CC(C)C)C(=O)O` [Entry 9] (Desaminotyrosyl-[NMeV]ID(X3)DL-OH), for which the IC50 was found to be 650 nM.
Next, `CC[C@H](C)[C@H](NC(=O)[C@H](C(C)C)N(C)C(=O)CCc1ccc(O)cc1)C(=O)N[C@@H](CC(=O)Nc1ccccc1)C(=O)N[C@@H](CC(=O)O)C(=O)N[C@@H](CC(C)C)C(=O)O` [Entry 10] (Desaminotyrosyl-[NMeV]ID(NHPh)DL-OH): 1600 nM; `CC[C@H](C)[C@H](NC(=O)[C@H](C(C)C)N(C)C(=O)CCc1ccc(O)cc1)C(=O)N[C@@H](CC(=O)NCCc1ccccc1)C(=O)N[C@@H](CC(=O)O)C(=O)N[C@@H](CC(C)C)C(=O)O` [Entry 11] (Desaminotyrosyl-[NMeV]ID(NHPhenethyl)DL-OH): 510 nM; `CC[C@H](C)[C@H](NC(=O)[C@H](C(C)C)N(C)C(=O)CCc1ccc(O)cc1)C(=O)N[C@@H](CC(=O)N(C)C)C(=O)N[C@@H](CC(=O)O)C(=O)N[C@@H](CC(C)C)C(=O)O` [Entry 12] (Desaminotyrosyl-[NMeV]ID(NMe2)DL-OH): 90 nM.
The value for `CC[C@H](C)[C@H](NC(=O)[C@H](C(C)C)N(C)C(=O)CCc1ccc(O)cc1)C(=O)N[C@@H](CC(=O)N(CC)CC)C(=O)N[C@@H](CC(=O)O)C(=O)N[C@@H](CC(C)C)C(=O)O` [Entry 13, DAT-N-Me-Val-Ile-Asp(NEt₂)-Asp-Leu-OH] (Desaminotyrosyl-[NMeV]ID(NEt2)DL-OH) was 270 nM.
The value for `CC[C@H](C)[C@H](NC(=O)[C@H](C(C)C)N(C)C(=O)CCc1ccc(O)cc1)C(=O)N[C@@H](CC(=O)N(C)CCc1ccccc1)C(=O)N[C@@H](CC(=O)O)C(=O)N[C@@H](CC(C)C)C(=O)O` [Entry 14] (Desaminotyrosyl-[NMeV]ID(N(Me)CH2CH2Ph)DL-OH) was 380 nM; that for `CC[C@H](C)[C@H](NC(=O)[C@H](C(C)C)N(C)C(=O)CCc1ccc(O)cc1)C(=O)N[C@@H](CC(=O)N(C)CCc1ccccn1)C(=O)N[C@@H](CC(=O)O)C(=O)N[C@@H](CC(C)C)C(=O)O` [Entry 15] (Desaminotyrosyl-[NMeV]ID(X8)DL-OH) was 290 nM; that for `CC[C@H](C)[C@H](NC(=O)[C@H](C(C)C)N(C)C(=O)CCc1ccc(O)cc1)C(=O)N[C@@H](CC(=O)N1CCOCC1)C(=O)N[C@@H](CC(=O)O)C(=O)N[C@@H](CC(C)C)C(=O)O` [Entry 16] (Desaminotyrosyl-[NMeV]ID(Morpholide)DL-OH) was 370 nM.
In the case of `CC[C@H](C)[C@H](NC(=O)[C@@H](NC(=O)CCc1ccc(O)cc1)C(C)C)C(=O)N[C@@H](CC(=O)NCCc1ccccc1)C(=O)N[C@@H](CC(=O)O)C(=O)N[C@@H](CC(C)C)C(=O)O` [Entry 17] (Desaminotyrosyl-VID(NHPhenethyl)DL-OH), it took 1700 nM to reach half-maximal inhibition (IC50). Against the preceding molecule, the IC50 is about 4.6-fold higher.
Next, `CCNC(=O)C[C@H](NC(=O)[C@@H](NC(=O)[C@@H](NC(=O)CCc1ccc(O)cc1)C(C)C)[C@@H](C)CC)C(=O)N[C@@H](CC(=O)O)C(=O)N[C@@H](CC(C)C)C(=O)O` [Entry 18] (Desaminotyrosyl-VID(NHEt)DL-OH): 1750 nM; `CC[C@H](C)[C@H](NC(=O)[C@@H](NC(=O)CCc1ccc(O)cc1)C(C)C)C(=O)N[C@@H](CC(=O)N(CC)CC)C(=O)N[C@@H](CC(=O)O)C(=O)N[C@@H](CC(C)C)C(=O)O` [Entry 19] (Desaminotyrosyl-VID(NEt2)DL-OH): 560 nM.
With `CC[C@H](C)[C@H](NC(=O)[C@@H](NC(=O)CCc1ccc(O)cc1)C(C)C)C(=O)N[C@@H](CC(=O)N(C)CCc1ccccc1)C(=O)N[C@@H](CC(=O)O)C(=O)N[C@@H](CC(C)C)C(=O)O` [Entry 20] (Desaminotyrosyl-VID(N(Me)CH2CH2Ph)DL-OH), 550 nM corresponded to half-maximal inhibition (IC50). The IC50 values of the last two molecules are within 1.5-fold of each other.
`CC[C@H](C)[C@H](NC(=O)[C@@H](NC(=O)c1ccccc1-c1ccccc1)C(C)C)C(=O)N[C@@H](CC(=O)NCCc1ccccc1)C(=O)N[C@@H](CC(=O)O)C(=O)N[C@@H](CC(C)C)C(=O)O` [Entry 21, 2-Biphenylylcarbonyl-Val-Ile-Asp-(NHCH₂CH₂Ph)-Asp-Leu-OH] ({Benzoyl(2-Ph)}-VID(NHPhenethyl)DL-OH) gave an IC50 of 1250 nM.
In turn, `CC[C@H](C)[C@H](NC(=O)[C@@H](NC(=O)c1ccccc1)C(C)C)C(=O)N[C@@H](CC(=O)NCCc1ccccc1)C(=O)N[C@@H](CC(=O)O)C(=O)N[C@@H](CC(C)C)C(=O)O` [Entry 22, Benzoyl-Val-Ile-Asp-(NHCH₂CH₂Ph)-Asp-Leu-OH] (Bz-VID(NHPhenethyl)DL-OH) returned an IC50 of 7600 nM.
In the case of `CC[C@H](C)[C@H](NC(=O)[C@@H](NC(C)=O)C(C)C)C(=O)N[C@@H](CC(=O)NCCc1ccccc1)C(=O)N[C@@H](CC(=O)O)C(=O)N[C@@H](CC(C)C)C(=O)O` [Entry 23, Ac-Val-Ile-Asp(NHCH₂CH₂Ph)-Asp-Leu-OH] (Ac-VID(NHPhenethyl)DL-OH), the IC50 came to 18000 nM.
The value for `CC[C@H](C)[C@H](NC(=O)[C@H](C(C)C)N(C)C(=O)CCC(C)C)C(=O)N[C@@H](CC(=O)N(CC)CC)C(=O)N[C@@H](CC(=O)O)C(=O)N[C@@H](CC(C)C)C(=O)O` [Entry 25, 4-Methylpentanoyl-N-Me-Val-Ile-Asp(NEt₂)-Asp-Leu-OH] ({Pentanoyl(4-Me)}-[NMeV]ID(NEt2)DL-OH) was 500 nM; that for `CCN(CC)C(=O)C[C@H](NC(=O)[C@@H](NC(=O)[C@H](C(C)C)N(C)C(=O)CCc1ccccc1)[C@@H](C)O)C(=O)N[C@@H](CC(=O)O)C(=O)N[C@@H](CC(C)C)C(=O)O` [Entry 26, PhCH₂CH₂CO-N-Me-Val-Thr-Asp(NEt₂)-Asp-Leu-OH] (Hydrocinnamoyl-[NMeV]TD(NEt2)DL-OH) was 300 nM.
The value for `CC[C@H](C)[C@H](NC(=O)[C@H](C(C)C)N(C)C(=O)CCc1ccccc1)C(=O)N[C@@H](CC(=O)N1CCOCC1)C(=O)N[C@@H](CC(=O)O)C(=O)N[C@@H](CC(C)C)C(=O)N(CC)CC` [Entry 27, PhCH₂CH₂CO-N-Me-Val-Ile-Asp(morpholino)-Asp-Leu-NEt₂] (Hydrocinnamoyl-[NMeV]ID(Morpholide)DL-NEt2) was 2600 nM; that for `CC[C@H](C)[C@H](NC(=O)[C@H](C(C)C)N(C)C(=O)CCc1ccc(O)c(O)c1)C(=O)N[C@@H](CC(=O)N1CCCC1)C(=O)N[C@@H](CC(=O)O)C(=O)N[C@@H](CC(C)C)C(=O)O` [Entry 28, (3,4-Dihydroxy-Ph)-CH₂CH₂CO-N-Me-Val-Ile-Asp(pyrrolidino)-Asp-Leu-OH] (Dihydrocaffeoyl-[NMeV]ID(Pyrrolidide)DL-OH) was 250 nM.
